Our source for the EC50 and IC50 values is article PMC3754872 (The Journal of Experimental Medicine, 2013).

Molecules are shown by their SMILES.

Assay [1] has as its target T1, CXCR2 (Mus musculus, UniProt P35343).
T1 sequence (P35343 1-359): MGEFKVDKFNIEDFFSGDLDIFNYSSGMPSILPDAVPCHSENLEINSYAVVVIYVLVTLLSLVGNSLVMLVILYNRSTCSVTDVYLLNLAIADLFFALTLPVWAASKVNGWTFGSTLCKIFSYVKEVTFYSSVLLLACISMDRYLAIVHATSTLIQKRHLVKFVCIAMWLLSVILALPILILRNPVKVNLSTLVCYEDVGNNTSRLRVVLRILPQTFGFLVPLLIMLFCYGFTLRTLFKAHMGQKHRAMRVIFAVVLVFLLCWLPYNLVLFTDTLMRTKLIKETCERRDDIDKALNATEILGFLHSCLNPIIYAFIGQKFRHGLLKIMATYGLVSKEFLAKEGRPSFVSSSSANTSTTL
Description: displacement of […]-IL-8 from CXCR2-expressing L1.[…] cells. Format: binding.

Assay [2] has as its target T1, CXCR2. Description: inhibition of agonist-stimulated. Format: biochemical.

As usually defined, the EC50 is the concentration that produces a half-maximal response. A high value points to a less potent agent. On CXCR2 [1], `CC(C)CCC(O)[C@@H](C)[C@H]1CC[C@H]2[C@@H]3CC=C4C[C@@H](O)CC[C@]4(C)[C@H]3CC[C@]12C` (stereo partly drawn) [22R-HC] gave an EC50 of 1320 ± 250 nM.
A word on the IC50: it is the concentration that gives 50% inhibition. Low values mean inhibition by little substance, high ones a need for much substance. The molecule `O=C(Nc1ccc([N+](=O)[O-])cc1O)Nc1ccccc1Br` [SB225002] gave an IC50 on CXCR2 [2] of 16.6 ± 3.64 nM.
